This note sets out measurements from patent US8492510B2, “Multifunctional degradable nanoparticles with control over size and functionalities” (Vanderbilt University, priority 2007, dated 2013).

This assay concerns human microvascular endothelial cells (HMEC). Briefly: Internalization into HMEC, temperature effect and control experiments (confocal microscopy). The class given is cell-based. Particulars: 10 uM, 60 min, 37° C. The protocol:
The human microvascular endothelial cells (HMEC) cells were incubated with conjugates (10 uM) for 2.5 min at 4° C. or at 37° C.
The HMEC cells were incubated with conjugates (1 uM) for 30 min at 4° C. or at 37° C.
(b) The HMEC cells were incubated with Boc-protected guanidinylated FD-2 (10 uM) for 60 min at 37° C.
Internalization of FD-1 and FD-2 in mammalian cells was assessed using two different cell lines and a previously described method [Futaki, S.; Nakase, I.; Suzuki, T.; Youjun, Y.; Sugiura, Y. Biochemistry 2002, 41, 7925.] with NIH-3T3 fibroblasts and HMEC (human microvascular endothelial cells) and a Zeiss LSM 510 confocal microscope. […] [Futaki, S.; Nakase, I.; Suzuki, T.; Youjun, Y.; Sugiura, Y. Biochemistry 2002, 41, 7925; Vivès, E.; Brodin, P.; Lebleu, B. J. Biol. Chem. 1997, 272, 16010.] Furthermore, the extent of internalization increased in an incubation time-dependent manner, and it was observed that after just 10 min, the fluorescence intensity of cells treated with FD-2 was near saturation. […] L. Org. Lett. 2005, 7, 4815.] but also regulate the subcellular localization of the molecule and its putative cargo. […] Therefore, the dendrimer with a hexyl spacer crosses the cell membrane faster than the molecule with an ethyl chain. On the other hand, the localization patterns can also be controlled by the length of the spacer. […]

As for fluorescein isothiocyanate [free FITC], the “fluorescence of cells in control experiments” value is listed as “no”.
